Read-outs that look alike come from different tables or passages of the source.
How the values were obtained:
Test in all cases: biochemical
Type in all cases: binding
panel of 442 kinases [1] = biological target: T1, panel of 442 kinases (Homo sapiens, UniProt P10721, V559D); conditions: kinase KIT(V559D); for remaining activity at 1 µM: read-out: % of control at 1 µM
T1 construct: purchased Ambit Biosciences (scanMAXX KINOMEscan)

panel of 442 kinases [2] = biological target: T2, panel of 442 kinases (Homo sapiens, UniProt Q9UIK4); conditions: DAPK2; for remaining activity at 1 µM: read-out: % of control at 1 µM
T2 construct: purchased Ambit Biosciences (scanMAXX KINOMEscan)

panel of 442 kinases [3] = biological target: T3, panel of 442 kinases (Homo sapiens, UniProt Q6P3R8); conditions: kinase NEK5; for remaining activity at 1 µM: read-out: % of control at 1 µM
T3 construct: purchased Ambit Biosciences (scanMAXX KINOMEscan)
T3 sequence (Q6P3R8 1-708): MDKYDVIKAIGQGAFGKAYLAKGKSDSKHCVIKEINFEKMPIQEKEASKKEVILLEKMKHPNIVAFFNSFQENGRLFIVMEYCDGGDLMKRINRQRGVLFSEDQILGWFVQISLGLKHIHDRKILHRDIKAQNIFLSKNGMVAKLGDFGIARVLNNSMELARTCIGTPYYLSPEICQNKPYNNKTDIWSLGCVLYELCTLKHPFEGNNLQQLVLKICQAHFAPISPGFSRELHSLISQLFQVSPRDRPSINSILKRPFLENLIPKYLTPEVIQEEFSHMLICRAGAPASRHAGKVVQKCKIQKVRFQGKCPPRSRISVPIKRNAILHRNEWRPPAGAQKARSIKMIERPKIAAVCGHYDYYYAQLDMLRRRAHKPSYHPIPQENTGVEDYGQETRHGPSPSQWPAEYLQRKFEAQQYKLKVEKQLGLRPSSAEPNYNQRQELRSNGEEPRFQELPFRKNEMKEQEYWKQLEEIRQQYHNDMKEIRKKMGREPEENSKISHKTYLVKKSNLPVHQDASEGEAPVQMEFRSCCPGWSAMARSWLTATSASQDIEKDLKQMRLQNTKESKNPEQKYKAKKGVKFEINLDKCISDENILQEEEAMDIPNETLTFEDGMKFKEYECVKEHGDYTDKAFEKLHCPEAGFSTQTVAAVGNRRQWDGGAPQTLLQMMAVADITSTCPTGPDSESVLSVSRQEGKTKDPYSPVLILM

panel of 442 kinases [4] = biological target: T4, panel of 442 kinases (Homo sapiens, UniProt Q02763); conditions: kinase TIE2; for remaining activity at 1 µM: read-out: TIE2 (% of control at 1 µM)
T4 construct: purchased Ambit Biosciences (scanMAXX KINOMEscan)

panel of 442 kinases [5] = biological target: T5, panel of 442 kinases (Homo sapiens, UniProt P11362); conditions: FGFR1; for remaining activity at 1 µM: read-out: % of control at 1 µM
T5 construct: purchased Ambit Biosciences (scanMAXX KINOMEscan)

panel of 442 kinases [6] = biological target: T6, panel of 442 kinases (Homo sapiens, UniProt P29597)
T6 construct: purchased Ambit Biosciences (scanMAXX KINOMEscan)

panel of 442 kinases [7] = biological target: T7, panel of 442 kinases (Plasmodium falciparum, UniProt P61075); conditions: kinase PFPK5(P.falciparum); for remaining activity at 1 µM: read-out: % of control at 1 µM; for remaining activity at 10 µM: read-out: % of control at 10 µM
T7 construct: purchased Ambit Biosciences (scanMAXX KINOMEscan)

panel of 442 kinases [8] = biological target: T8, panel of 442 kinases (Homo sapiens, UniProt Q9Y6R4); conditions: kinase MAP3K4; for remaining activity at 1 µM: read-out: % of control at 1 µM
T8 construct: purchased Ambit Biosciences (scanMAXX KINOMEscan)

panel of 442 kinases [9] = biological target: T9, panel of 442 kinases (Homo sapiens, UniProt P00533, T790M); conditions: EGFR(T790M); for remaining activity at 1 µM: read-out: % of control at 1 µM
T9 construct: purchased Ambit Biosciences (scanMAXX KINOMEscan)

panel of 442 kinases [10] = biological target: T10, panel of 442 kinases (Homo sapiens, UniProt Q04771); conditions: ACVR1; for remaining activity at 1 µM: read-out: % of control at 1 µM
T10 construct: purchased Ambit Biosciences (scanMAXX KINOMEscan)
T10 sequence (Q04771 21-509): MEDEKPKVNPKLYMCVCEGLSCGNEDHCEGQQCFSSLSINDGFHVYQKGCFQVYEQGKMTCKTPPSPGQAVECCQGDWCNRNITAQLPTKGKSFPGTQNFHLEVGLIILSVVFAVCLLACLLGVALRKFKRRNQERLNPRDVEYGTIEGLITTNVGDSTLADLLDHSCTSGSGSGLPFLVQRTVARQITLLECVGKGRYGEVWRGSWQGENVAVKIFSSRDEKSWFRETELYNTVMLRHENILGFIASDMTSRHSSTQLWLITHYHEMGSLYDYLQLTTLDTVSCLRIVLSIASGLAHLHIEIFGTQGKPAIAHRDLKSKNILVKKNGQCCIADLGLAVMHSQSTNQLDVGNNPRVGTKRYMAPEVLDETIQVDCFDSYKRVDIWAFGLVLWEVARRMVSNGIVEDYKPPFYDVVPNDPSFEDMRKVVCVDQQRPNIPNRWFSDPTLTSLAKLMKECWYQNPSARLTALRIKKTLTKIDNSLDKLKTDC

panel of 442 kinases [11] = biological target: T11, panel of 442 kinases (Homo sapiens, UniProt P49674); conditions: CSNK1E; for remaining activity at 1 µM: read-out: % of control at 1 µM
T11 construct: purchased Ambit Biosciences (scanMAXX KINOMEscan)

panel of 442 kinases [12] = biological target: T12, panel of 442 kinases (Homo sapiens, UniProt Q07002); conditions: kinase PCTK3; for remaining activity at 1 µM: read-out: % of control at 1 µM
T12 construct: purchased Ambit Biosciences (scanMAXX KINOMEscan)

panel of 442 kinases [13] = biological target: T13, panel of 442 kinases (Homo sapiens, UniProt P46734); conditions: kinase MEK3; for remaining activity at 1 µM: read-out: % of control at 1 µM
T13 construct: purchased Ambit Biosciences (scanMAXX KINOMEscan)
T13 sequence (P46734 1-347): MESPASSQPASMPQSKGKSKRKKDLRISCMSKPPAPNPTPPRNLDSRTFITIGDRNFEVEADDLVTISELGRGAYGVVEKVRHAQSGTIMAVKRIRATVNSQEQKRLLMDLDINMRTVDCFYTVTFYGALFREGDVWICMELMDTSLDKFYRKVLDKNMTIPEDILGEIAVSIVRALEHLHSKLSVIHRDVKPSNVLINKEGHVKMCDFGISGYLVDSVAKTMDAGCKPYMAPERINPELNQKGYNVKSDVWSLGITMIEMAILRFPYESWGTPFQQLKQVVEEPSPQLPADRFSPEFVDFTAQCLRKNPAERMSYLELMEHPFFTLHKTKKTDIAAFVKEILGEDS

panel of 442 kinases [14] = biological target: T14, panel of 442 kinases (Homo sapiens, UniProt Q9H2X6); conditions: kinase HIPK2; for remaining activity at 1 µM: read-out: % of control at 1 µM
T14 construct: purchased Ambit Biosciences (scanMAXX KINOMEscan)

[15] = 10 µM, read-out: % of control at 10 µM
[16] = kinase TYK2(JH1domain-catalytic), read-out: TYK2(JH1domain-catalytic) (% of control at 1 µM)
[17] = kinase TYK2(JH2domain-pseudokinase), read-out: TYK2(JH2domain-pseudokinase) (% of control at 1 µM)

T14 sequence (Q9H2X6 whole entry): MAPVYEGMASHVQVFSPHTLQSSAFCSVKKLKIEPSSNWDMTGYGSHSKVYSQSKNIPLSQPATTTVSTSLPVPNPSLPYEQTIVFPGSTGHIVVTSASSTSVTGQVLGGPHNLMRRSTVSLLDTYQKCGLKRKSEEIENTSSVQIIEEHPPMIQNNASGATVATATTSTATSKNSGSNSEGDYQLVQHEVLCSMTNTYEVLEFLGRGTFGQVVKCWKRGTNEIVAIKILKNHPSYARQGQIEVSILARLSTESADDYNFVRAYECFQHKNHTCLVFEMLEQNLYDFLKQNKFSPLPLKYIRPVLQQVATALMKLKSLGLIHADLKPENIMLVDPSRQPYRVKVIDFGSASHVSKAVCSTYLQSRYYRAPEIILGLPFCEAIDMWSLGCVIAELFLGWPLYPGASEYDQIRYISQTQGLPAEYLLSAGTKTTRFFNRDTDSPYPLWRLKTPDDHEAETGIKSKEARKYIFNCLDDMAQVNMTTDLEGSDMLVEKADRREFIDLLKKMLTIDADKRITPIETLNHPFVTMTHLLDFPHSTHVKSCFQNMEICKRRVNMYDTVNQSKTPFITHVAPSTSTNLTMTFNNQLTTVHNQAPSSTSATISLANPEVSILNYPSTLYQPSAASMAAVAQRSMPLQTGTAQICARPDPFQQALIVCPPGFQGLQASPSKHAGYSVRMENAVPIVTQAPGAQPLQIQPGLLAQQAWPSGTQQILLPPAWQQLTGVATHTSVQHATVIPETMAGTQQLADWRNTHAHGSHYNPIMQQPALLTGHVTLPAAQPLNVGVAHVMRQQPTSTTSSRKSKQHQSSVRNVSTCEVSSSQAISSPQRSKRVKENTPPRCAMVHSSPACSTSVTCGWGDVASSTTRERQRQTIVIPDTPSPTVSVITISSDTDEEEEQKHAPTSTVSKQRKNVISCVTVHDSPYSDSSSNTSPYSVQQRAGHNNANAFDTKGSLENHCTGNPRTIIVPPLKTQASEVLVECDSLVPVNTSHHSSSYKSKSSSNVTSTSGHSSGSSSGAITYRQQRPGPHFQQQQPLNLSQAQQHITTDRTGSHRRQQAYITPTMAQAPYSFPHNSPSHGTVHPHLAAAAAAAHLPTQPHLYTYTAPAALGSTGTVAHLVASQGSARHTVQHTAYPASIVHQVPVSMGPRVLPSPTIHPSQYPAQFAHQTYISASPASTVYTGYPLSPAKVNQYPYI
T12 sequence (Q07002 whole entry): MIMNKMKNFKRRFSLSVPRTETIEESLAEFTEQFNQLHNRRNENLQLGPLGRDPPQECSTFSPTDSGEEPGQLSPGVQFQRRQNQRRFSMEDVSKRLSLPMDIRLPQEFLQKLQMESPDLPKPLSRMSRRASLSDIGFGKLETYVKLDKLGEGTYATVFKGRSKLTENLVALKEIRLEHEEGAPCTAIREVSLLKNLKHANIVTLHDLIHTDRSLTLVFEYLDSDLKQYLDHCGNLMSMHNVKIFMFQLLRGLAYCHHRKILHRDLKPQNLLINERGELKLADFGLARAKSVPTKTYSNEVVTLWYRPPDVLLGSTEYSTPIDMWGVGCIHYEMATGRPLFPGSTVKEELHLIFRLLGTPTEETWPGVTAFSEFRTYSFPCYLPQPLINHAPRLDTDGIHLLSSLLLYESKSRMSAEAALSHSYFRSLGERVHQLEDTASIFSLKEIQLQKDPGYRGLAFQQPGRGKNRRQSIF
T5 sequence (P11362 22-822): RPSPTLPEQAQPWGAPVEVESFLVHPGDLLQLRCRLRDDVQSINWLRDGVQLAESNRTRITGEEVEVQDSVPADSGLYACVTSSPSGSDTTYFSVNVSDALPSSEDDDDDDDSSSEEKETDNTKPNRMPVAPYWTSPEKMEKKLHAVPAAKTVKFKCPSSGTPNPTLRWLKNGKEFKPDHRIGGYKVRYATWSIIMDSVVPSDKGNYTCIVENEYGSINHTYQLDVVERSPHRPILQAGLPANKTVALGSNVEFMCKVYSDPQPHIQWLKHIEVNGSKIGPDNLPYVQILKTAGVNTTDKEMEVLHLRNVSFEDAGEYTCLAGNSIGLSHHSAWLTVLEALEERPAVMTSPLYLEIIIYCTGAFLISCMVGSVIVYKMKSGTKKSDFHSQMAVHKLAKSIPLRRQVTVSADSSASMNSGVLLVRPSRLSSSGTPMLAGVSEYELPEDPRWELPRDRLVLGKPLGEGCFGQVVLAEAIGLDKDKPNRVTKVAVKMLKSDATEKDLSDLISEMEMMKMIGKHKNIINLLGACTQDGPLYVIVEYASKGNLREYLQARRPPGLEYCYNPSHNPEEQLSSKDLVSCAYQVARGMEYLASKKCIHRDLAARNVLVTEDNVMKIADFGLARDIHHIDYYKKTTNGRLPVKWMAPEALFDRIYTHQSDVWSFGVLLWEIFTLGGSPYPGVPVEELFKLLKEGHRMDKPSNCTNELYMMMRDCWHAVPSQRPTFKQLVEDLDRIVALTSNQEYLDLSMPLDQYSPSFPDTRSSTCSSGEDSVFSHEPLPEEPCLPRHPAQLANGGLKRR
T8 sequence (Q9Y6R4 whole entry): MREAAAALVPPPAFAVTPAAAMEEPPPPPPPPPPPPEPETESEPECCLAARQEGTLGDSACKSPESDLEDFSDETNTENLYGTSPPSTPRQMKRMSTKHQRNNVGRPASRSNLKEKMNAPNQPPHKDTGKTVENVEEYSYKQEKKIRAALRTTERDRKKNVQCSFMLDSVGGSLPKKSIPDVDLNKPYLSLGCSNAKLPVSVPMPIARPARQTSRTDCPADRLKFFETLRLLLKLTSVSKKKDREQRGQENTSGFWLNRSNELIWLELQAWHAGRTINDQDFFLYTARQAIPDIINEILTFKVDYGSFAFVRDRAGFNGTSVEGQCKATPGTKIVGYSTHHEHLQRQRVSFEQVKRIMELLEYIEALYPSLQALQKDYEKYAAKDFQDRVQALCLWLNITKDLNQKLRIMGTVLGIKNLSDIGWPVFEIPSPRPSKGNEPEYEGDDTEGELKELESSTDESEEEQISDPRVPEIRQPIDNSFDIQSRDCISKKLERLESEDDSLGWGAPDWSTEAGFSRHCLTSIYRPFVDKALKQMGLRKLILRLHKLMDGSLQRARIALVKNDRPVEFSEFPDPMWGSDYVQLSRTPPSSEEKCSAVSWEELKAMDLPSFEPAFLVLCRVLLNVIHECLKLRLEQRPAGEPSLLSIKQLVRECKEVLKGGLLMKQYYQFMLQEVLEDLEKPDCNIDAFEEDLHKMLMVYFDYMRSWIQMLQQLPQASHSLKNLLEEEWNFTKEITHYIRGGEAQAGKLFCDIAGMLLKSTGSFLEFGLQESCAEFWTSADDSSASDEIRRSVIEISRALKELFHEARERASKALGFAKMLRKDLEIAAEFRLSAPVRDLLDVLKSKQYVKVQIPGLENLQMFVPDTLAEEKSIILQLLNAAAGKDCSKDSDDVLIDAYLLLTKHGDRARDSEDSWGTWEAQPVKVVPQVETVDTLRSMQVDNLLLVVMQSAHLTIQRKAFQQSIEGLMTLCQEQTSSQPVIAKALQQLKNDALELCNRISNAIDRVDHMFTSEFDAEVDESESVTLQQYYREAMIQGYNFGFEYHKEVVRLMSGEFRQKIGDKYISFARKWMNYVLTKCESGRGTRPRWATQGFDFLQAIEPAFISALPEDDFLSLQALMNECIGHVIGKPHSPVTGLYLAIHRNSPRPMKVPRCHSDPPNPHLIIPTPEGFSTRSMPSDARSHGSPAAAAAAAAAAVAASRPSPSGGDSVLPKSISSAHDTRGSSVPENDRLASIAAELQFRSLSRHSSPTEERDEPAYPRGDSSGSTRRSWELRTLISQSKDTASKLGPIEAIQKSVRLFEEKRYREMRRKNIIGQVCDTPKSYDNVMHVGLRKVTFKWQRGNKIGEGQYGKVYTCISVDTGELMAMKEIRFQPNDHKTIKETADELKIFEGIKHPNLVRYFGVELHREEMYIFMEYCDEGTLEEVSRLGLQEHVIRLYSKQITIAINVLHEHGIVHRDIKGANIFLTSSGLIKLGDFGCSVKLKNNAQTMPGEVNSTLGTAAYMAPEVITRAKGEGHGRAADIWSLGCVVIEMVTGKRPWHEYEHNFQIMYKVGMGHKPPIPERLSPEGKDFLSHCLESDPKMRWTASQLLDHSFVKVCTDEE
T7 sequence (P61075 whole entry): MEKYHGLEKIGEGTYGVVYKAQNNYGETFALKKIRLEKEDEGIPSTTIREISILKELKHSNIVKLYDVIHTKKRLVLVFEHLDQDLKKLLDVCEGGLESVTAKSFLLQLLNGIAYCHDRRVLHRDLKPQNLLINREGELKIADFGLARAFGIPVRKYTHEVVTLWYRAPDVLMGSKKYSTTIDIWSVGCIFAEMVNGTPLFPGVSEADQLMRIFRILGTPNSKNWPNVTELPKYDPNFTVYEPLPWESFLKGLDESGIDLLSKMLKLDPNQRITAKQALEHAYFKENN
T2 sequence (Q9UIK4 whole entry): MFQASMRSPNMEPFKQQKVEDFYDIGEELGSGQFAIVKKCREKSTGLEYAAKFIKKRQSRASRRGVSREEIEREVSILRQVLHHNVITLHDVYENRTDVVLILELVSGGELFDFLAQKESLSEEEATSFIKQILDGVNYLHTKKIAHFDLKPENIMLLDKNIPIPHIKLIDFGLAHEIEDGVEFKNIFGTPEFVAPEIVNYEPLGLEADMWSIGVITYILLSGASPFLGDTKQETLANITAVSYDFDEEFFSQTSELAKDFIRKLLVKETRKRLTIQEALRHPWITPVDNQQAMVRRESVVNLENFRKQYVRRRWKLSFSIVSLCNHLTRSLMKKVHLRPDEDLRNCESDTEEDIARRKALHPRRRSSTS

| Structure (SMILES) | remaining activity at 1 µM (panel of 442 kinases [1]) [%] | remaining activity at 1 µM (panel of 442 kinases [2]) [%] | remaining activity at 1 µM (panel of 442 kinases [3]) [%] | remaining activity at 1 µM (panel of 442 kinases [4]) [%] | remaining activity at 1 µM (panel of 442 kinases [5]) [%] | remaining activity at 1 µM (panel of 442 kinases [6]; [16]) [%] | remaining activity at 1 µM (panel of 442 kinases [6]; [17]) [%] | remaining activity at 1 µM (panel of 442 kinases [7]) [%] | remaining activity at 10 µM (panel of 442 kinases [7]) [%] | remaining activity at 1 µM (panel of 442 kinases [8]) [%] | remaining activity at 1 µM (panel of 442 kinases [9]) [%] | remaining activity at 1 µM (panel of 442 kinases [10]) [%] | remaining activity at 1 µM (panel of 442 kinases [11]) [%] | remaining activity at 1 µM (panel of 442 kinases [12]) [%] | remaining activity at 1 µM (panel of 442 kinases [13]) [%] | remaining activity at 1 µM (panel of 442 kinases [14]) [%] | other results |
| --- | --- | --- | --- | --- | --- | --- | --- | --- | --- | --- | --- | --- | --- | --- | --- | --- | --- |
| Nc1cc(C(F)(F)F)c(-c2cc(N3CCOCC3)nc(N3CCOCC3)n2)cn1 [Buparlisib] | 100 | 100 | 100 | 100 | 100 | 100 | 32 | 100 | 100 | 92 | 73 | 100 | 100 | 100 | 100 | 100 | remaining activity at 10 µM (panel of 442 kinases [1]; [15]): 66%; remaining activity at 10 µM (panel of 442 kinases [2]; [15]): 100%; remaining activity at 10 µM (panel of 442 kinases [3]; [15]): 88%; remaining activity at 10 µM (panel of 442 kinases [4]; 10 µM, read-out: TIE2 (% of control at 10 µM)): 100%; remaining activity at 10 µM (panel of 442 kinases [5]; [15]): 100%; remaining activity at 10 µM (panel of 442 kinases [6]; kinase TYK2(JH1domain-catalytic), read-out: TYK2(JH1domain-catalytic) (% of control at 10 µM)): 100%; remaining activity at 10 µM (panel of 442 kinases [6]; kinase TYK2(JH2domain-pseudokinase), read-out: TYK2(JH2domain-pseudokinase) (% of control at 10 µM)): 22%; remaining activity at 10 µM (panel of 442 kinases [8]; [15]): 100%; remaining activity at 10 µM (panel of 442 kinases [9]; [15]): 69%; remaining activity at 10 µM (panel of 442 kinases [10]; [15]): 100%; remaining activity at 10 µM (panel of 442 kinases [11]; [15]): 72%; remaining activity at 10 µM (panel of 442 kinases [12]; [15]): 87%; remaining activity at 10 µM (panel of 442 kinases [13]; [15]): 100%; remaining activity at 10 µM (panel of 442 kinases [14]; [15]): 100% |
| Cn1c(=O)n(-c2ccc(C(C)(C)C#N)cc2)c2c3cc(-c4cnc5ccccc5c4)ccc3ncc21 [Dactolisib, 2-methyl-2-[4-(3-methyl-2-oxo-8-quinolin-3-yl-2,3-dihydroimidazo[4,5-c]quinolin-1-yl)-phenyl] propionitrile] | 65 | 97 | 62 | 100 | 94 | 26 | 65 | 100 |  | 96 | 100 | 65 | 54 | 94 | 96 | 64 |  |
| COc1ncc(-c2ccc3nccc(-c4ccnnc4)c3c2)cc1NS(=O)(=O)c1ccc(F)cc1F [Omipalisib] | 96 | 100 | 100 | 100 | 94 | 100 | 78 | 100 |  | 100 | 100 | 100 | 100 | 100 | 46 | 91 |  |
| CS(=O)(=O)N1CCN(Cc2cc3nc(-c4cccc5[nH]ncc45)nc(N4CCOCC4)c3s2)CC1 [Pictilisib, 2-(1H-indazol-4-yl)-6-(4-methanesulfonyl-piperazin-1-ylmethyl)-4-morpholin-4-yl-t hieno[3,2-d]pyrimidine] |  |  |  |  |  |  |  | 92 | 100 |  |  |  |  |  |  |  |  |
| FC(F)c1nc2ccccc2n1-c1nc(N2CCOCC2)nc(N2CCOCC2)n1 [ZSTK474, 2-(difluoromethyl)-1-[4,6-di(4-morpholinyl)-1,3,5-triazin-2-yl]-1H-benzimidazole] | 84 | 100 | 89 | 100 | 100 | 93 | 97 | 100 |  | 97 | 100 | 76 | 100 | 100 | 100 | 86 |  |

Reference: article PMC5564600 (Oncotarget, 2017)
